{"source": "patent US4539333A", "about": "“Prostacyclin, methods of using and method of making” (Burroughs Wellcome Co., priority 1976, dated 1985)", "key": {"blood pressure": {"tested_on": "blood pressure", "assay": "Blood pressure and heart rate in normotensive anaesthetised rats", "assay_type": "in vivo", "details": "injected intravenously and intra-aortically", "protocol": "Prostacyclin was injected intravenously and intra-aortically into normotensive anaethetised rats and the blood pressure and heart rate recorded."}, "[1]": {"tested_on": "human platelet rich plasma (PRP)", "assay": "Aggregation of platelets in fresh human platelet rich plasma, Born aggregometer", "assay_type": "cell-based", "protocol": "Aggregation of platelets in 1 ml. of fresh human platelet rich plasma (PRP) was monitored in a Born aggregometer. An immediate anti-aggregatory effect of the fresh reaction mixture of Example 1 of aortic microsomes with PGH2 or PGG2 was observed. The lowest anti-aggregatory concentration was obtained with samples containing 0.5-5 ng. Prostacyclin/ml."}, "strips of rabbit aorta": {"tested_on": "strips of rabbit aorta", "assay": "Contraction of rabbit aorta strips (cascade superfusion bioassay)", "protocol": "Aortic microsomal powder (5 mg) was incubated with 1 μg of prostalgandin endoperoxide (PGG2 or PGH2) in 0.05 M Tris buffer (pH 7.5) (1 ml.) for 2 minutes at 22° C. Enzyme activity was estimated by direct bioassay of the incubation mixture. After incubation of 2 minutes at 22° C. all prostaglandin endoperoxide activity was lost indicated by a lack of contraction of rabbit aorta strips when assayed by the cascade superfusion technique of Vane (Br. J. Pharmacy. 23, 369-373, 1964 indicating 100% conversion of PGG2 or PGH2."}, "[2]": {"tested_on": "strips of coeliac and mesenteric arteries", "assay": "Relaxation of strips of coeliac and mesenteric arteries", "parameters": "species or system rabbit"}, "[3]": {"tested_on": "gastric lesions induced by indomethacin", "assay": "Gastric lesions induced in rats by indomethacin", "assay_type": "in vivo", "details": "doses from 62.5 to 250 μg/kg, subcutaneous injection"}, "[4]": {"tested_on": "strips of coronary artery from the ox", "assay": "Relaxation of spirally cut strips of coronary artery", "details": "dose dependent effect", "protocol": "The effect is dose dependent and relaxation can be seen with doses as low as 20 nanograms per 5 ml bath."}, "[5]": {"assay": "Stability of Prostacyclin and of its anti-aggregatory activity (aqueous medium, storage)", "assay_type": "physicochemical", "protocol": "Prostacyclin is unstable at room temperature in aqueous medium, having a half-life of approximately 10 mins., but its anti-aggregatory activity can be preserved for several days by dissolving the substance in aqueous alkali or in dry acetone and storing at -20° C. […] Prostacyclin also interrupts and reverses the presence of platelet aggregation.\nThe anti-aggregatory activity of the extracted Prostacyclin disappeared on bioling (15 seconds) or on standing at 22° C. for 20 minutes. The anti-aggregatory activity of Prostacyclin could be preserved for several days by dissolving the substance in dry acetone and storing at -20° C."}, "[6]": {"tested_on": "isolated hearts from rabbits", "assay": "Isolated hearts perfused at constant flow rate by the Langendorf technique", "details": "rabbit hearts"}, "[7]": {"tested_on": "rabbit aorta, rabbit coeliac artery, rat stomach strip and rat colon", "assay": "Profile of biological activity on isolated tissues", "protocol": "5.xi.-Iodo-9-deoxy-6.xi., 9α-epoxyprostaglandin F1α methyl ester (500 mg) was stirred with methanolic NaOMe prepared from Na (0.23 g., 10 equivs.) and MeOH (3.5 ml.) under N2 at room temperature overnight; 1N aq. NaOH (2.5 ml.) was added to the yellow reaction solution to bring about hydrolysis of the ester moiety and, after 2 hours, the methanol was evaporated in vacuo at room temperature. The residual aqueous solution gave rise spontaneously to a mass of colourless fine needles of the desired sodium salt (formula (I): R=Na) which was cooled (0°), collected, washed sparingly with 1N aq. NaOH, air-dried, and stored in a stoppered tube; this salt (383 mg.) had max (KBr disc) 1692 cm^-1 [drawing 4] and twenty ^13 C resonances only were observed (at 182.7 (C-1), 158.2 (C-6), 140.0 and 134.3 (C-13, 14), 100.7(C-5), 87.5(C-15), 80.6 and 75.5(C-9, 11), 58.0(C-12), 49.0, 45.8, 42.4, 41.9, 37.5, 35.8 (C-18), 31.6., 29.9, 29.3, 26.7(C-19), and 18.4(C-20) ppm from TMS in DMSO-d6). The product, sodium (5Z)- 5,6-didehydro-9-deoxy-6,9α-epoxyprostaglandin F1α (syn. sodium prostacyclin), thus obtained completed inhibited arachidonic acid-induced platelet aggregation (human platelet-rich plasma) at 1 ng./ml. and its profile of biological activity on the rabbit aorta, rabbit coeliac artery, rat stomach strip and rat colon conformed with that of sodium prostacyclin obtained by biosynthesis. […]"}}, "data": [{"smiles": "CCCCC[C@H](O)/C=C/[C@@H]1[C@H]2C/C(=C/CCCC(=O)O)O[C@H]2C[C@H]1O", "note": "[Prostacyclin, (5Z)-5,6-didehydro-9-deoxy-6,9α-epoxyprostaglandin F1α]", "values": [{"measurement": "vasodepressor potency relative to PGE2", "setting": "blood pressure", "result": 5, "unit": "times"}, {"measurement": "minimal effective concentration", "setting": "[1]; Platelet, fresh reaction mixture of aortic microsomes with PGH2 or PGG2, 1 ml human PRP, read-out: lowest anti-aggregatory concentration", "result": "0.0005 to 0.005", "unit": "µg/mL"}, {"measurement": "effect on platelet aggregation induced by arachidonic acid and PGG2", "setting": "[1]; diethyl ether extracts", "result": "inhibited"}, {"measurement": "anti-aggregatory potency relative to PGD2", "setting": "[1]; times more potent than PGD2, on average", "result": "5-20 times"}, {"measurement": "anti-aggregatory potency relative to PGE1", "setting": "[1]; times more potent than PGE1, on average", "result": "10-40 times"}, {"measurement": "effect on strips of rabbit aorta", "setting": "strips of rabbit aorta", "result": "does not contract"}, {"measurement": "effect on strips of coeliac and mesenteric arteries", "setting": "[2]", "result": "relaxed"}, {"measurement": "potency compared with PGE2 on coeliac and mesenteric artery strips", "setting": "[2]", "result": "less potent than PGE2"}, {"measurement": "effect on formation of gastric lesions", "setting": "[3]", "result": "inhibit the formation of gastric lesions"}, {"measurement": "lowest dose at which relaxation can be seen", "setting": "[4]", "result": 20, "unit": "nanograms per 5 ml bath"}, {"measurement": "anti-aggregatory activity after boiling", "setting": "[5]; boiling, 15 seconds, extracted Prostacyclin", "result": "disappeared"}, {"measurement": "time for which anti-aggregatory activity is preserved on storage", "setting": "[5]; dissolved in dry acetone (b5: or aqueous alkali), stored at -20° C.", "result": "several days"}, {"measurement": "half-life", "setting": "[5]; room temperature, aqueous medium", "result": "~10", "unit": "min"}, {"measurement": "anti-aggregatory activity after standing", "setting": "[5]; standing at 22° C. for 20 minutes, extracted Prostacyclin", "result": "disappeared"}, {"measurement": "effect on coronary vessels", "setting": "[6]", "result": "produced coronary vasodilation"}]}, {"smiles": "CCCCC[C@H](O)/C=C/[C@@H]1[C@H]2C/C(=C/CCCC(=O)O)O[C@H]2C[C@H]1O", "note": "[sodium prostacyclin, sodium (5Z)-5,6-didehydro-9-deoxy-6,9α-epoxyprostaglandin F1α]", "values": [{"measurement": "IC100", "setting": "[1]; arachidonic acid-induced, human platelet-rich plasma, read-out: concentration giving complete inhibition of arachidonic acid-induced platelet aggregation", "result": 0.001, "unit": "µg/mL"}, {"measurement": "profile of biological activity compared with sodium prostacyclin obtained by biosynthesis", "setting": "[7]", "result": "conformed"}, {"measurement": "stability in water at acid pH", "setting": "[5]; water, acid pH", "result": "instability"}]}]}
